Assay results as given in ChEMBL document CHEMBL3603789, “N-Lipidated Peptide Dimers: Effective Antibacterial Agents against Gram-Negative Pathogens through Lipopolysaccharide Permeabilization” (J Med Chem, 2015).
In brackets after ≈: the same amount, converted by molar mass. Activity calls are given as the source filed them. No cut-off for these calls is given here. Bridge positions count the residues as written; N and C are the ends. Peptide text beside a SMILES is read from it. I, II: the chains in the order shown. * marks the point of attachment. Hexanoyl = CCCCCC(=O)*

Legend:
[1] = system: Lipopolysaccharide (LPS); test: Induction of Escherichia coli 0111:B4 LPS neutralization using p-nitroaniline assessed as concentration required to neutralize 50% after 1 hr by limulus amebocyte lysate assay
[2] = system: Pseudomonas aeruginosa; test: Antibacterial activity against Pseudomonas aeruginosa DM23155 after 24 hrs by broth microdilution method; format: functional; conditions: DM23155, 24 h
[3] = system: Pseudomonas aeruginosa; test: Antibacterial activity against Pseudomonas aeruginosa DM4150R after 24 hrs by broth microdilution method; format: functional
[4] = Induction of calcein leakage from DOPE/DOPG artificial membrane at 1:32 ratio of compound to lipid by fluorescence assay; format: physicochemical
[5] = system: Lipopolysaccharide (LPS); test: Displacement of dansylcadaverine from Escherichia coli 0111:B4 LPS at 15 to 30 uM after 5 mins by high-throughput fluorescence displacement assay
[6] = system: Pseudomonas aeruginosa; test: Antibacterial activity against Pseudomonas aeruginosa DU14476 after 24 hrs by broth microdilution method; format: functional; conditions: DU14476, 24 h
[7] = system: Pseudomonas aeruginosa; test: Antibacterial activity against Pseudomonas aeruginosa DM23155 assessed as log reduction of viable count at 2 times MIC after 30 mins by time-kill assay relative to control; format: functional
[8] = system: Pseudomonas aeruginosa; test: Antibacterial activity against Pseudomonas aeruginosa ATCC 9027 after 24 hrs by broth microdilution method; format: functional; conditions: ATCC 9027, 24 h
[9] = system: Pseudomonas aeruginosa; test: Antibacterial activity against Pseudomonas aeruginosa DR4877 after 24 hrs by broth microdilution method; format: functional; conditions: DR4877, 24 h
[10] = system: Pseudomonas aeruginosa; test: Antibacterial activity against Pseudomonas aeruginosa DM23257 after 24 hrs by broth microdilution method; format: functional; conditions: DM23257, 24 h
[11] = system: Pseudomonas aeruginosa; test: Antibacterial activity against Pseudomonas aeruginosa DR18531 after 24 hrs by broth microdilution method; format: functional; conditions: DR18531, 24 h
[12] = system: Pseudomonas aeruginosa; test: Antibacterial activity against Pseudomonas aeruginosa DM23376 after 24 hrs by broth microdilution method; format: functional; conditions: DM23376, 24 h
[13] = system: Klebsiella pneumoniae; test: Antibacterial activity against Klebsiella pneumoniae DM4299 after 24 hrs by broth microdilution method; format: functional; conditions: DM4299, 24 h
[14] = system: Pseudomonas aeruginosa; test: Antibacterial activity against Pseudomonas aeruginosa DR5790 after 24 hrs by broth microdilution method; format: functional; conditions: DR5790, 24 h
[15] = system: Escherichia coli; test: Antibacterial activity against Escherichia coli ATCC 25922 after 24 hrs by broth microdilution method; format: functional; conditions: ATCC 25922, 24 h
[16] = system: Pseudomonas aeruginosa; test: Induction of cytoplasmic membrane disruption in Pseudomonas aeruginosa DM23155 assessed as membrane integrity at 1 to 2 times MIC after 1 hr by fluorescence assay; format: functional
[17] = Toxicity in New Zealand white rabbit erythrocytes assessed as hemolytic activity after 60 mins; format: cell-based, Oryctolagus cuniculus; conditions: erythrocyte, 1 h
[18] = system: Pseudomonas aeruginosa; test: Antibacterial activity against Pseudomonas aeruginosa ATCC 27853 after 24 hrs by broth microdilution method; format: functional; conditions: ATCC 27853, 24 h
[19] = system: Pseudomonas aeruginosa; test: Antibacterial activity against Pseudomonas aeruginosa DM23155 after 24 hrs by checkerboard assay in presence of erythromycin; format: functional
[20] = system: Pseudomonas aeruginosa; test: Induction of 1-N-phenylnaphthylamine uptake in Pseudomonas aeruginosa DM23155 at 400 uM after 1 hr by fluorescence assay relative to polymyxin B; format: functional
[21] = system: Escherichia coli; test: Antibacterial activity against Escherichia coli ATCC 25922 after 24 hrs by checkerboard assay in presence of nalidixic acid; format: functional
[22] = system: Escherichia coli; test: Antibacterial activity against Escherichia coli ATCC 25922 after 24 hrs by checkerboard assay in presence of gentamicin; format: functional
[23] = system: Pseudomonas aeruginosa; test: Antibacterial activity against Pseudomonas aeruginosa DM23155 after 24 hrs by checkerboard assay in presence of gentamicin; format: functional
[24] = system: Escherichia coli; test: Antibacterial activity against Escherichia coli ATCC 25922 after 24 hrs by checkerboard assay in presence of erythromycin; format: functional
[25] = system: Escherichia coli; test: Antibacterial activity against Escherichia coli ATCC 25922 after 24 hrs by checkerboard assay in presence of kanamycin; format: functional
[26] = system: Pseudomonas aeruginosa; test: Antibacterial activity against Pseudomonas aeruginosa DM23155 after 24 hrs by checkerboard assay in presence of streptomycin; format: functional
[27] = system: Escherichia coli; test: Antibacterial activity against Escherichia coli ATCC 25922 after 24 hrs by checkerboard assay in presence of streptomycin; format: functional
[28] = system: Pseudomonas aeruginosa; test: Antibacterial activity against Pseudomonas aeruginosa DM23155 after 24 hrs by checkerboard assay in presence of nalidixic acid; format: functional
[29] = system: Pseudomonas aeruginosa; test: Antibacterial activity against Pseudomonas aeruginosa DM23155 after 24 hrs by checkerboard assay in presence of kanamycin; format: functional
[30] = system: Klebsiella pneumoniae; test: Antibacterial activity against Klebsiella pneumoniae DB55301 after 24 hrs by broth microdilution method; format: functional; conditions: DB55301, 24 h
[31] = system: Escherichia coli; test: Antibacterial activity against Escherichia coli DS17232 after 24 hrs by broth microdilution method; format: functional; conditions: DS17232, 24 h
[32] = system: Escherichia coli; test: Antibacterial activity against Escherichia coli DM17528 after 24 hrs by broth microdilution method; format: functional; conditions: DM17528, 24 h
[33] = system: Klebsiella pneumoniae; test: Antibacterial activity against Klebsiella pneumoniae DS07955 after 24 hrs by broth microdilution method; format: functional; conditions: DS07955, 24 h
[34] = system: Klebsiella pneumoniae; test: Antibacterial activity against Klebsiella pneumoniae DS16260 after 24 hrs by broth microdilution method; format: functional; conditions: DS16260, 24 h
[35] = system: Klebsiella pneumoniae; test: Antibacterial activity against Klebsiella pneumoniae DU31158 after 24 hrs by broth microdilution method; format: functional; conditions: DU31158, 24 h

EC50 [1] | MIC [2] | Activity [4] | Activity [5] | MIC [13] | MIC [15] | Compound | Activity [16] | HC10 [17] | fractional inhibitory concentration index (FICI) [19] | fractional inhibitory concentration index (FICI) [21] | fractional inhibitory concentration index (FICI) [22] | fractional inhibitory concentration index (FICI) [23] | fractional inhibitory concentration index (FICI) [24] | fractional inhibitory concentration index (FICI) [25] | fractional inhibitory concentration index (FICI) [26] | fractional inhibitory concentration index (FICI) [27] | fractional inhibitory concentration index (FICI) [28] | fractional inhibitory concentration index (FICI) [29] | other results
> 1000 µM | 6 µM (≈ 13.7 µg/mL) | Active | 82.4% | 6 µM (≈ 13.7 µg/mL) | 3 µM (≈ 6.87 µg/mL) | CC(C)[C@H](NC(=O)[C@H](CCCCN)NC(=O)[C@H](CCCNC(=N)N)NC(=O)CNC(=O)[C@@H](N)CCCNC(=N)N)C(=O)N[C@H](C(=O)N[C@@H](CCCNC(=N)N)C(=O)N[C@@H](CCCNC(=N)N)C(=O)NCCCC[C@H](NC(=O)[C@H](CCCNC(=N)N)NC(=O)[C@H](CCCNC(=N)N)NC(=O)[C@@H](NC(=O)[C@@H](NC(=O)[C@H](CCCCN)NC(=O)[C@H](CCCNC(=N)N)NC(=O)CNC(=O)[C@@H](N)CCCNC(=N)N)C(C)C)C(C)C)C(=O)N[C@@H](CCCCN)C(=O)O)C(C)C (I: H-RGRKVVRRKK-OH / II: H-RGRKVVRR; amide I:9-II:C) | >80% | > 10000 µg/mL | – | – | – | – | – | – | – | – | – | – | MIC [3]: 3 µM (≈ 6.87 µg/mL); MIC [6]: 6 µM (≈ 13.7 µg/mL); Activity [7]: inactive; MIC [8]: 6 µM (≈ 13.7 µg/mL); MIC [9]: 6 µM (≈ 13.7 µg/mL); MIC [10]: 3 µM (≈ 6.87 µg/mL); MIC [11]: 3 µM (≈ 6.87 µg/mL); MIC [12]: 6 µM (≈ 13.7 µg/mL); MIC [14]: 10 µM (≈ 22.9 µg/mL); MIC [18]: 6 µM (≈ 13.7 µg/mL)
413 µM | 3 µM (≈ 6.96 µg/mL) | – | 86.4% | 3 µM (≈ 6.96 µg/mL) | 3 µM (≈ 6.96 µg/mL) | CCCCCC(=O)N[C@@H](CCCNC(=N)N)C(=O)NCC(=O)N[C@@H](CCCNC(=N)N)C(=O)N[C@@H](CCCCN)C(=O)NCC(=O)NCC(=O)N[C@@H](CCCNC(=N)N)C(=O)N[C@@H](CCCNC(=N)N)C(=O)NCCCC[C@H](NC(=O)[C@H](CCCNC(=N)N)NC(=O)[C@H](CCCNC(=N)N)NC(=O)CNC(=O)CNC(=O)[C@H](CCCCN)NC(=O)[C@H](CCCNC(=N)N)NC(=O)CNC(=O)[C@H](CCCNC(=N)N)NC(=O)CCCCC)C(=O)N[C@@H](CCCCN)C(=O)O (I: Hexanoyl-RGRKGGRRKK-OH / II: Hexanoyl-RGRKGGRR; amide I:9-II:C) | – | > 10000 µg/mL | 0.56 | 0.75 | 0.56 | 0.31 | 0.75 | 0.5 | 0.5 | 0.38 | 0.63 | 0.5 | Activity [20]: 10.5%
187 µM | 6 µM (≈ 14.9 µg/mL) | Active | 100% | 6 µM (≈ 14.9 µg/mL) | 3 µM (≈ 7.46 µg/mL) | CCCCCC(=O)N[C@@H](CCCNC(=N)N)C(=O)NCC(=O)N[C@@H](CCCNC(=N)N)C(=O)N[C@@H](CCCCN)C(=O)N[C@H](C(=O)N[C@H](C(=O)N[C@@H](CCCNC(=N)N)C(=O)N[C@@H](CCCNC(=N)N)C(=O)NCCCC[C@H](NC(=O)[C@H](CCCNC(=N)N)NC(=O)[C@H](CCCNC(=N)N)NC(=O)[C@@H](NC(=O)[C@@H](NC(=O)[C@H](CCCCN)NC(=O)[C@H](CCCNC(=N)N)NC(=O)CNC(=O)[C@H](CCCNC(=N)N)NC(=O)CCCCC)C(C)C)C(C)C)C(=O)N[C@@H](CCCCN)C(=O)O)C(C)C)C(C)C (I: Hexanoyl-RGRKVVRRKK-OH / II: Hexanoyl-RGRKVVRR; amide I:9-II:C) | >80% | > 10000 µg/mL | 0.38 | 0.5 | 0.38 | 0.25 | 0.38 | 0.5 | 0.38 | 0.38 | 0.38 | 0.31 | MIC [30]: 10 µM (≈ 24.9 µg/mL); MIC [31]: 10 µM (≈ 24.9 µg/mL); MIC [32]: 10 µM (≈ 24.9 µg/mL); MIC [33]: 10 µM (≈ 24.9 µg/mL); MIC [34]: 3 µM (≈ 7.46 µg/mL); MIC [35]: 10 µM (≈ 24.9 µg/mL)
